According to patent US4791113A, “Mitomycin derivatives as antileukemia agents” (Kyowa Hakko Kogyo Kabushiki Kaisha, priority 1986, dated 1988):
Values after ≈ are worked out from the molar mass of the structure shown.

Tested on: not listed separately
Test: in vivo
Details: mouse, ip, single abdominal administration, ddy mice, 14 days, Behrens-Korber's method
From the text: In this table, C.I. denotes chemotherapeutic index, calculated as C.I.=(LD50)/(ED50), wherein LD50 denotes the value of acute toxicity, and ED50 denotes the dose of a sample which is capable of reducing the volume of Sarcoma 180 solid tumour to 50% of the corresponding volume of the solid tumour of untreated group.
The test compound was abdominally administered once to ddy mice, each group consisting of 5 animals.

SMILES | LD50 at 336 h [mg/kg]
COC(=O)N=Nc1c(C)c(O)c2c(c1O)[C@@H](COC(N)=O)[C@@]1(OC)[C@H]3N[C@H]3CN21 [Example 24] | > 100

Tested on: Hela S3 cultured cells
Test: Effects upon Hela S3 cultured cells
Type: cell-based
Details: Homo sapiens, HeLa S3, 72 h
Procedure: Table 3 indicates the effects of typical Compounds (I) against Hela S3 culture cells. In this table, IC50 denotes the concentration of the test compound capable of reducing the number of cells to 50% the number of untreated cells.
Cultured cells of Hela S3 were added to a MEM medium containing 10% (V/V) of bovine fetal serum and […] of glutamine to obtain a cell suspension of 3×10^4 cells/ml. The cell suspension was poured into each well (1 ml/well) of a 24 well-multiplate for culturing at 37° C. in an incubator containing carbon dioxide (5%) and air (95%). After 24 hours, samples were dissolved or suspended in PBS, ethanol or dimethylsulfoxide and added to the medium at different concentrations, followed by culturing at 37° C. for 72 hours in the same incubator. An aspirator was used to collect the medium from each well. The surface of each medium was washed by adding PBS (1 ml) gently, and then PBS was sucked out. PBS containing trypsin (0.05%) and EDTA (0.02%) was poured into each well. After pipetting, the number of cells in each suspension was counted by the use of a microcell counter (commercial product of Toa Iyo Denshi K.K., Japan). By reference to a curve showing the concentration vs. the number of cells, the IC50 (concentration of sample capable of reducing the number of cells to 50% of the number of control untreated cells) was measured.

SMILES | IC50 [µg/mL]
COc1c(C)c(N=O)c(O)c2c1N1C[C@H]3[C@H](N3C)[C@]1(OC)[C@@H]2COC(N)=O (stereo partly drawn) [Example 7, [1aS-(1aα, 8α, 8aα, 8bα)]-8-{[(aminocarbonyl)oxy]methyl}-4,8a-dimethoxy-1,5-dimethyl-1,1a,2,8,8a,8b-hexahydro-7-hydroxy-6-nitroso-azirino-[2',3':3,4]-pyrrolo[1,2-a]indole] | 0.013 (≈ 0.0344 µM)
COc1c(C)c(N=O)c(O)c2c1N1C[C@@H]3N[C@@H]3[C@]1(OC)[C@@H]2CO [Example 9, [1aS-(1aα, 8β, 8aα, 8bα)]-4,8a-dimethoxy-1,1a,2,8,8a,8b-hexahydro-7-hydroxy-8-hydroxymethyl-5-methyl-6-nitroso-azirino[2',3':3,4]pyrrolo [1,2-a]indole] | 0.005 (≈ 0.0156 µM)
CO[C@@]12[C@H](COC(N)=O)c3c(O)c(N=NC(=O)c4ccccc4)c(C)c(O)c3N1C[C@@H]1N[C@@H]12 [Example 17, [1aS-(1aα,8β,8aα,8bα)]-8-{[(aminocarbonyl)oxy]methyl}-6-[(benzoyl)azo-]-4,7-dihydroxy-1,1a,2,8,8a,8b-hexahydro-8a-methoxy-5-methyl-azirino-[2',3':3,4]pyrrolo[1,2-a]indole] | 14.9 (≈ 32.9 µM)
CO[C@@]12[C@H](COC(N)=O)c3c(O)c(N=NC(C)=O)c(C)c(O)c3N1C[C@@H]1N[C@@H]12 [Example 18, [1aS-(1aα,8β,8aα,8bα)]-6-[(acetyl)azo]-8-{[(aminocarbonyl)oxy]methyl}-4,7-dihydroxy-1,1a,2,8,8a,8b-hexahydro-8a-methoxy-5-methyl-azirino[2',3':3,4]pyrrolo[1,2-a]indole] | 0.54 (≈ 1.38 µM)
CO[C@@]12[C@H](CO)c3c(O)c(N=NC(=O)c4ccccc4)c(C)c(O)c3N1C[C@H]1[C@@H]2N1C (stereo partly drawn) [Example 22, [1aS-(1aα,8β,8aα,8bα)]-6-[(benzoyl)azo]-4,7-dihydroxy-1,5-dimethyl-1,1a,2,8,8a,8b-hexahydro-8-hydroxymethyl-8a-methoxy-azirino-[2',3':3,4[pyrrolo]1,2-a]indole] | 0.131 (≈ 0.309 µM)
COC(=O)N=Nc1c(C)c(O)c2c(c1O)[C@@H](COC(N)=O)[C@@]1(OC)[C@H]3N[C@H]3CN21 [Example 24] | 0.012 (≈ 0.0295 µM)
CO[C@@]12[C@H](COC(N)=O)c3c(O)c(N=NC(N)=O)c(C)c(O)c3N1C[C@@H]1N[C@@H]12 [Example 25] | 0.003 (≈ 0.00765 µM)
CO[C@@]12[C@H](COC(N)=O)c3c(O)c(N=NC(=O)c4ccccc4O)c(C)c(O)c3N1C[C@@H]1N[C@@H]12 [Example 28, [1aS-(1aα,8β,8aα,8bα)]-8-{[(aminocarbonyl)oxy]methyl}-4,7-dihydroxy-1,1a,2,8,8a,8b-hexahydro-6-[(2"-hydroxybenzoyl)azo]-8a-methoxy-5-methyl-azirino [2',3':3,4]pyrrolo[1,2-a]indole] | 0.08 (≈ 0.17 µM)

Same assay, conditions: Homo sapiens; concentration reducing number of Hela S3 cells to 50% of untreated; 72 hours at 37° C.; read-out: IC50

SMILES | IC50 [µg/mL]
CO[C@@]12[C@H](COC(N)=O)C3=C(C(=O)C(C)=C(N)C3=O)N1C[C@@H]1N[C@@H]12 [mitomycin C, reference compound] | 0.004 (≈ 0.012 µM)
